In PubChem BioAssay (NCI):
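Interpolation was linear, between the two tested concentrations surrounding the appropriate level; five concentrations were tested over 48 hours in 96-well plates. TGI is the concentration that stops growth completely.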

Key:
Assay in all cases: inhibition of tumour cell growth, NCI panel, 48 h
HCC-2998 colon = test system: HCC-2998 colon
MDA-MB-231 breast = test system: MDA-MB-231 breast
MDA-N = test system: MDA-N
NCI-H23 lung = test system: NCI-H23 lung
OVCAR-4 ovarian = test system: OVCAR-4 ovarian
OVCAR-5 ovarian = test system: OVCAR-5 ovarian
PC-3 prostate = test system: PC-3 prostate
RXF 393 renal = test system: RXF 393 renal
SF-268 CNS = test system: SF-268 CNS
SF-295 CNS = test system: SF-295 CNS
SK-MEL-28 melanoma = test system: SK-MEL-28 melanoma
SN12C renal = test system: SN12C renal
SNB-19 CNS = test system: SNB-19 CNS
UACC-62 melanoma = test system: UACC-62 melanoma

Compound	TGI (HCC-2998 colon) [µM]	TGI (MDA-MB-231 breast) [µM]	TGI (MDA-N) [µM]	TGI (NCI-H23 lung) [µM]	TGI (OVCAR-4 ovarian) [µM]	TGI (OVCAR-5 ovarian) [µM]	TGI (PC-3 prostate) [µM]	TGI (RXF 393 renal) [µM]	TGI (SF-268 CNS) [µM]	TGI (SF-295 CNS) [µM]	TGI (SK-MEL-28 melanoma) [µM]	TGI (SN12C renal) [µM]	TGI (SNB-19 CNS) [µM]	TGI (UACC-62 melanoma) [µM]
CCCCc1c2c(c(C)c3c1C(=O)OC3)Oc1ccccc1O2	3.22	> 55.6	0.456	> 100	> 95.6	> 100	> 34.8	7.98	> 100	> 51.4	> 100	38.3	> 75	> 100
CC1(C)C2CCC(O)(C2)C1N (stereo unspecified)	> 100	> 100	> 100	> 100	> 100	> 100	> 100	> 100	> 100	> 100	> 100	> 100	> 100	> 100
CC(=O)/C(C=Nc1c(C)n(C)n(C)c1=O)=C(/O)c1ccccc1	> 50	> 50	> 50	> 50	> 50	> 50	> 50	> 50	> 50	> 50	> 50	> 50	> 50	> 50
COC(=O)C1=NN2c3ccccc3CN([C@@H](C)c3ccccc3)C(=O)[C@@H]2[C@H]1c1ccccc1	> 100	> 100	> 100	> 100	> 100	> 100	> 100	> 100	> 100	> 100	> 100	> 100	> 100	> 100
O=C1C(S(=O)(=O)c2ccccc2)=C(CS(=O)(=O)c2ccccc2)[C@@H](OCc2ccccc2)[C@@H]1OCc1ccccc1	36.3	60	88.7	36.3	57.8	75.4	85.8	27.8	> 100	40.4	35.9	76.4	> 100	40
CC[C@@]1(CCC(=O)NCCc2c[nH]c3ccccc23)CCC(=O)N2CCc3c([nH]c4ccccc34)[C@H]21	46.7	> 100	> 100	> 100	> 100	> 100	> 100	33.3	30	60.6	> 100	> 100	> 100	65.3
O=C1O/C(=C\c2ccc(O)cc2)C(c2ccc(O)c(Cl)c2)=C1Cl	89.9	> 100	68	76.6	> 100	> 100	> 100	73	> 100	> 100	> 100	> 100	> 100	> 100
CC1=NN(c2nc(N)nc(/C(C#N)=C\c3cccc([N+](=O)[O-])c3)n2)C(C)(C)C1	22.2	25.1	> 33.3	> 72	> 60.9	> 100	> 53.8	14.3	> 65.1	52	> 65	> 65.3	88.5	> 40.2
Nc1ccc(Sc2c3ccccc3nc3ccccc23)cc1	59.5	28.1	38.5	36.7	29.4	52	25.7	40.4	40.5	47.5	24.8	36.1	51.6	30.5
CC1=CCC2CC1NC(=O)CCOCCC(=O)NC2(C)C (stereo unspecified)	> 100	> 100	> 100	> 100	> 100	> 100	> 100	> 100	> 100	> 100	> 100	> 100	> 100	> 100
Cc1nnc(Sc2nc(C#N)c(C#N)nc2Sc2nnc(C)s2)s1	51.8	37.9	49.7	49.8	> 80.1	46.5	30.7	6	73.2	73.8	47	26.4	54.6	34.9
CCOC(=O)C(CCc1ncnc2c1ncn2Cc1ccccc1)(CCc1ncnc2c1ncn2Cc1ccccc1)C(=O)OCC	54.8	> 100	> 100	> 100	> 100	> 100	> 100	> 100	> 100	> 100	> 100	> 100	> 100	> 100
NC(=O)C(=CNC(=S)Nc1cccc(C(F)(F)F)c1)C(N)=O	> 100	> 100	> 100	> 100	> 100	> 100	> 100	> 100	> 100	> 100	> 100	> 100	> 100	> 100
O=C1NC(=S)NC(=O)C1=C/C=C/c1ccc([N+](=O)[O-])cc1	35.7	35.5	27.7	29.6	36.1	40.2	32.2	26.8	36.8	33.1	10.4	34.7	34	28.7
Cc1cccc2c1c(=O)c1c(O)cc(O)cc1n2C	> 100	> 100	> 100	> 100	> 100	> 100	> 100	> 100	> 100	> 100	> 100	> 100	> 100	> 100
O=C1/C(=C/c2ccc(Cl)cc2)CSC/C1=C\c1ccc(Cl)cc1	4.09	27.2	10.6	11.8	14.1	5.57	16	3.36	22	4.21	5.51	9.52	17	2.83
Cc1c(F)c(NC(=O)CN(C)C)c2c(=O)cc(-c3ccc(NC(=O)CN(C)C)c(F)c3)oc2c1F	19	26.9	34	36.1	37.6	41.1	33.8	25.6	38.3	28.9	40.9	36.3	41.2	34.8
S=C(N1CCN(c2ccccc2)CC1)N1CCN(c2ccccc2)CC1	> 100	> 100	> 100	> 100	> 100	> 100	> 100	> 100	> 100	> 100	> 100	> 100	> 100	> 100
CCCCCCCCOC(=O)c1cc([N+](=O)[O-])c(Sc2ncnc3nc[nH]c23)c([N+](=O)[O-])c1	16.2	> 31.6	22.5	11.7	13.5	13.8	13.8	> 47.6	8.47	11.2	42.8	7.34	32.9	17
